# Data: paper PMC11435058, “Synthesis of New Thiazole-Privileged Chalcones as Tubulin Polymerization Inhibitors with Potential Anticancer Activities” (Pharmaceuticals, 2024)
# How the values were obtained:
# SK-MEL-2 = assay: NCI-60 anticancer screen (SRB; single dose and five doses); conditions: Homo sapiens; for activity at 10 µM: SK-MEL-2, 48 h, read-out: Growth Percentage; for CC50: SK-MEL-2, read-out: LC50; for IC (TGI): SK-MEL-2, read-out: TGI
# UACC-257 = assay: as above; conditions: Homo sapiens; for activity at 10 µM: UACC-257, 48 h, read-out: Growth Percentage; for CC50: UACC-257, read-out: LC50; for IC (TGI): UACC-257, read-out: TGI
# NCI-H226 = assay: as above; conditions: Homo sapiens; for activity at 10 µM: NCI-H226, 48 h, read-out: Growth Percentage; for CC50: NCI-H226, read-out: LC50; for IC (TGI): NCI-H226, read-out: TGI
# CCRF-CEM = assay: NCI-60 anticancer screen (SRB; single dose 10 μM and five doses); conditions: Homo sapiens; for activity at 10 µM: 48 h, read-out: Growth Percentage; for IC (TGI): read-out: TGI
# SF-295 = assay: NCI-60 anticancer screen (SRB; single dose and five doses); conditions: Homo sapiens; for activity at 10 µM: SF-295, 48 h, read-out: Growth Percentage; for CC50: SF-295, read-out: LC50; for IC (TGI): SF-295, read-out: TGI
# MCF7 = assay: as above; conditions: Homo sapiens; for activity at 10 µM: MCF7, 48 h, read-out: Growth Percentage; for CC50: MCF7, read-out: LC50; for IC (TGI): MCF7, read-out: TGI
# OVCAR-5 = assay: as above; conditions: Homo sapiens; for activity at 10 µM: OVCAR-5, 48 h, read-out: Growth Percentage; for CC50: OVCAR-5, read-out: LC50; for IC (TGI): OVCAR-5, read-out: TGI
# NCI-H322M = assay: as above; conditions: Homo sapiens; for activity at 10 µM: 48 h, read-out: Growth Percentage; for CC50: read-out: LC50; for IC (TGI): read-out: TGI
smiles,measurement,setting,value
"Cc1[nH]c(=S)sc1C(=O)/C=C/c1ccccc1 [2a, (E)-1-(4-Methyl-2-Thioxo-2,3-Dihydrothiazol-5-yl)-3-Phenylprop-2-En-1-One]",activity at 10 µM,SK-MEL-2,68.2%
same,activity at 10 µM,UACC-257,76.2%
same,activity at 10 µM,NCI-H226,96.5%
same,melting point,,245 to 247 °C
same,activity at 10 µM,CCRF-CEM,37.2%
same,activity at 10 µM,SF-295,88.9%
same,activity at 10 µM,MCF7,19.8%
same,activity at 10 µM,OVCAR-5,129%
same,activity at 10 µM,NCI-H322M,66.5%
"COc1ccc(/C=C/C(=O)c2sc(=S)[nH]c2C)c(OC)c1 [2n, (E)-3-(2,4-Dimethoxyphenyl)-1-(4-Methyl-2-Thioxo-2,3-Dihydrothiazol-5-yl)Prop-2-En-1-One]",activity at 10 µM,SK-MEL-2,64.7%
same,activity at 10 µM,UACC-257,84.4%
same,activity at 10 µM,NCI-H226,79.7%
same,melting point,,255 to 257 °C
same,activity at 10 µM,CCRF-CEM,53.7%
same,activity at 10 µM,SF-295,72.5%
same,activity at 10 µM,MCF7,46%
same,activity at 10 µM,OVCAR-5,120%
"COc1ccc(/C=C/C(=O)c2sc(=S)[nH]c2C)cc1OC [2o, (E)-3-(3,4-Dimethoxyphenyl)-1-(4-Methyl-2-Thioxo-2,3-Dihydrothiazol-5-yl)Prop-2-En-1-One]",activity at 10 µM,SK-MEL-2,68.6%
same,activity at 10 µM,UACC-257,71.4%
same,activity at 10 µM,NCI-H226,80.5%
same,melting point,,245 to 247 °C
same,activity at 10 µM,CCRF-CEM,15.5%
same,activity at 10 µM,SF-295,66.5%
same,activity at 10 µM,MCF7,28.9%
same,activity at 10 µM,OVCAR-5,131%
same,activity at 10 µM,NCI-H322M,63.4%
"COc1cccc(/C=C/C(=O)c2sc(=S)[nH]c2C)c1OC [2m, (E)-3-(2,3-Dimethoxyphenyl)-1-(4-Methyl-2-Thioxo-2,3-Dihydrothiazol-5-yl)Prop-2-En-1-One]",activity at 10 µM,SK-MEL-2,94.2%
same,activity at 10 µM,UACC-257,35.4%
same,activity at 10 µM,NCI-H226,90.8%
same,melting point,,239 to 240 °C
same,activity at 10 µM,CCRF-CEM,12.4%
same,activity at 10 µM,SF-295,26.3%
same,activity at 10 µM,MCF7,16.6%
same,activity at 10 µM,OVCAR-5,81.7%
same,activity at 10 µM,NCI-H322M,62.8%
"Cc1[nH]c(=S)sc1C(=O)/C=C/c1ccccc1Cl [2d, (E)-3-(2-Chlorophenyl)-1-(4-Methyl-2-Thioxo-2,3-Dihydrothiazol-5-yl)Prop-2-En-1-One]",activity at 10 µM,SK-MEL-2,84.8%
same,activity at 10 µM,UACC-257,87.2%
same,activity at 10 µM,NCI-H226,89.6%
same,melting point,,240 to 242 °C
same,activity at 10 µM,CCRF-CEM,46.8%
same,activity at 10 µM,SF-295,82.5%
same,activity at 10 µM,MCF7,28.9%
same,activity at 10 µM,OVCAR-5,116%
same,activity at 10 µM,NCI-H322M,106%
"COc1ccc(/C=C/C(=O)c2sc(=S)[nH]c2C)cc1 [2l, (E)-3-(4-Methoxyphenyl)-1-(4-Methyl-2-Thioxo-2,3-Dihydrothiazol-5-yl)Prop-2-En-1-One]",activity at 10 µM,SK-MEL-2,80.3%
same,activity at 10 µM,UACC-257,68%
same,activity at 10 µM,NCI-H226,93.6%
same,melting point,,246 to 248 °C
same,activity at 10 µM,CCRF-CEM,59%
same,activity at 10 µM,SF-295,83.5%
same,activity at 10 µM,MCF7,30.8%
same,activity at 10 µM,OVCAR-5,145%
same,activity at 10 µM,NCI-H322M,92.4%
"Cc1ccc(/C=C/C(=O)c2sc(=S)[nH]c2C)cc1 [2j, (E)-1-(4-Methyl-2-Thioxo-2,3-Dihydrothiazol-5-yl)-3-(p-Tolyl)Prop-2-En-1-One]",activity at 10 µM,SK-MEL-2,89.8%
same,activity at 10 µM,UACC-257,80.1%
same,activity at 10 µM,NCI-H226,93.8%
same,melting point,,241 to 243 °C
same,activity at 10 µM,CCRF-CEM,24.6%
same,activity at 10 µM,SF-295,83.4%
same,activity at 10 µM,MCF7,28.3%
same,activity at 10 µM,OVCAR-5,138%
same,activity at 10 µM,NCI-H322M,62.1%
"Cc1[nH]c(=S)sc1C(=O)/C=C/c1ccc([N+](=O)[O-])cc1 [2i, (E)-1-(4-Methyl-2-Thioxo-2,3-Dihydrothiazol-5-yl)-3-(4-Nitrophenyl)Prop-2-En-1-One]",GI50,SK-MEL-2; SK-MEL-2,13.6 µM
same,activity at 10 µM,SK-MEL-2,49.5%
same,CC50,SK-MEL-2,62 µM
same,IC (TGI),SK-MEL-2,29 µM
same,GI50,UACC-257; UACC-257,15.1 µM
same,activity at 10 µM,UACC-257,63.3%
same,CC50,UACC-257,61.4 µM
same,IC (TGI),UACC-257,30.4 µM
same,GI50,NCI-H226; NCI-H226,15.6 µM
same,activity at 10 µM,NCI-H226,91.4%
same,CC50,NCI-H226,> 100 µM
same,IC (TGI),NCI-H226,42.1 µM
same,GI50,CCRF-CEM,4.56 µM
same,activity at 10 µM,CCRF-CEM,-7.25%
same,IC (TGI),CCRF-CEM,> 100 µM
same,GI50,SF-295; SF-295,16.1 µM
same,activity at 10 µM,SF-295,86.1%
same,CC50,SF-295,56.5 µM
same,IC (TGI),SF-295,30.2 µM
same,GI50,MCF7; MCF7,2.67 µM
same,activity at 10 µM,MCF7,5.51%
same,CC50,MCF7,51.3 µM
same,IC (TGI),MCF7,11.7 µM
same,GI50,OVCAR-5; OVCAR-5,17.8 µM
same,activity at 10 µM,OVCAR-5,110%
same,CC50,OVCAR-5,58.2 µM
same,IC (TGI),OVCAR-5,32.2 µM
same,GI50,NCI-H322M,11 µM
same,activity at 10 µM,NCI-H322M,50.7%
same,CC50,NCI-H322M,54.6 µM
same,IC (TGI),NCI-H322M,24.5 µM
"Cc1[nH]c(=S)sc1C(=O)/C=C/c1ccc(N(C)C)cc1 [2k, (E)-3-(4-(Dimethylamino)Phenyl)-1-(4-Methyl-2-Thioxo-2,3-Dihydrothiazol-5-yl)Prop-2-En-1-One]",activity at 10 µM,SK-MEL-2,88.9%
same,activity at 10 µM,UACC-257,64.1%
same,activity at 10 µM,NCI-H226,88.3%
same,melting point,,249 to 251 °C
same,activity at 10 µM,CCRF-CEM,68.5%
same,activity at 10 µM,SF-295,79.8%
same,activity at 10 µM,MCF7,60%
same,activity at 10 µM,OVCAR-5,142%
same,activity at 10 µM,NCI-H322M,81.1%
"Cc1[nH]c(=S)sc1C(=O)/C=C/c1ccc(Cl)cc1 [2f, (E)-3-(4-Chlorophenyl)-1-(4-Methyl-2-Thioxo-2,3-Dihydrothiazol-5-yl)Prop-2-En-1-One]",GI50,SK-MEL-2; SK-MEL-2,13.8 µM
same,IC50,SK-MEL-2; SK-MEL-2,27.5 µM
same,activity at 10 µM,SK-MEL-2,58.4%
same,CC50,SK-MEL-2,56.2 µM
same,IC (TGI),SK-MEL-2,28.2 µM
same,GI50,UACC-257; UACC-257,13.8 µM
same,IC50,UACC-257; UACC-257,26.9 µM
same,activity at 10 µM,UACC-257,66.8%
same,CC50,UACC-257,56.2 µM
same,IC (TGI),UACC-257,27.5 µM
same,GI50,NCI-H226; NCI-H226,13.8 µM
same,IC50,NCI-H226; NCI-H226,36.3 µM
same,activity at 10 µM,NCI-H226,20.5%
same,CC50,NCI-H226,> 100 µM
same,IC (TGI),NCI-H226,38 µM
same,GI50,CCRF-CEM,2.88 µM
same,activity at 10 µM,CCRF-CEM,3.18%
same,IC50,CCRF-CEM; five doses,2.88 µM
same,IC50,"CCRF-CEM; five-dose, Leukemia CCRF-CEM",3.98 µM
same,IC (TGI),CCRF-CEM,11.2 µM
same,GI50,SF-295; SF-295,15.8 µM
same,IC50,SF-295; SF-295,28.8 µM
same,activity at 10 µM,SF-295,42.6%
same,CC50,SF-295,55 µM
same,IC (TGI),SF-295,29.5 µM
same,GI50,MCF7; MCF7,3.16 µM
same,IC50,MCF7; MCF7,4.68 µM
same,activity at 10 µM,MCF7,4.86%
same,CC50,MCF7,43.6 µM
same,IC (TGI),MCF7,13.2 µM
same,GI50,OVCAR-5; OVCAR-5,17.8 µM
same,IC50,OVCAR-5; OVCAR-5,32.4 µM
same,activity at 10 µM,OVCAR-5,50.8%
same,CC50,OVCAR-5,60.3 µM
same,IC (TGI),OVCAR-5,33.1 µM
same,GI50,NCI-H322M,10.2 µM
same,IC50,NCI-H322M,19.9 µM
same,CC50,NCI-H322M,51.3 µM
same,IC (TGI),NCI-H322M,22.9 µM
"Cc1[nH]c(=S)sc1C(=O)/C=C/c1ccc(F)cc1 [2c, (E)-3-(4-Fluorophenyl)-1-(4-Methyl-2-Thioxo-2,3-Dihydrothiazol-5-yl)Prop-2-En-1-One]",GI50,SK-MEL-2; SK-MEL-2,11.6 µM
same,activity at 10 µM,SK-MEL-2,56.6%
same,CC50,SK-MEL-2,50.1 µM
same,IC (TGI),SK-MEL-2,24.1 µM
same,GI50,UACC-257; UACC-257,12.6 µM
same,activity at 10 µM,UACC-257,64.1%
same,CC50,UACC-257,56.6 µM
same,IC (TGI),UACC-257,26.7 µM
same,GI50,NCI-H226; NCI-H226,5.27 µM
same,activity at 10 µM,NCI-H226,67.1%
same,CC50,NCI-H226,> 100 µM
same,IC (TGI),NCI-H226,27.6 µM
same,GI50,CCRF-CEM,3.68 µM
same,activity at 10 µM,CCRF-CEM,-0.21%
same,IC (TGI),CCRF-CEM,> 100 µM
same,GI50,SF-295; SF-295,12.5 µM
same,activity at 10 µM,SF-295,60.6%
same,CC50,SF-295,52.9 µM
same,IC (TGI),SF-295,25.7 µM
same,GI50,MCF7; MCF7,2.65 µM
same,activity at 10 µM,MCF7,9.48%
same,CC50,MCF7,37 µM
same,IC (TGI),MCF7,11.4 µM
same,GI50,OVCAR-5; OVCAR-5,15.6 µM
same,activity at 10 µM,OVCAR-5,119%
same,CC50,OVCAR-5,57.7 µM
same,IC (TGI),OVCAR-5,30 µM
same,GI50,NCI-H322M,4.1 µM
same,activity at 10 µM,NCI-H322M,64%
same,CC50,NCI-H322M,44.8 µM
same,IC (TGI),NCI-H322M,17.9 µM
"Cc1[nH]c(=S)sc1C(=O)/C=C/c1cccc(F)c1 [2b, (E)-3-(3-Fluorophenyl)-1-(4-Methyl-2-Thioxo-2,3-Dihydrothiazol-5-yl)Prop-2-En-1-One]",activity at 10 µM,SK-MEL-2,81.2%
same,activity at 10 µM,UACC-257,83.7%
same,activity at 10 µM,NCI-H226,85.7%
same,melting point,,234 to 236 °C
same,activity at 10 µM,CCRF-CEM,15.4%
same,activity at 10 µM,SF-295,38.4%
same,activity at 10 µM,MCF7,7.97%
same,activity at 10 µM,OVCAR-5,88.2%
same,activity at 10 µM,NCI-H322M,84.5%
